Source: patent US20150315202A1, “CHLORIN DERIVATIVE USEFUL IN PHOTODYNAMIC THERAPY AND DIAGNOSIS” (RMW CHO GROUP LIMITED, priority 2012, published 2015)
“Also recorded” adds a separate entry of the source.

Columns and labels:
[1] = Fluorescence spectra and fluorescence quantum yield (reference TPPS); type: physicochemical
Protocol: Absorption spectra were recorded using computerized spectrophotometers Hitachi 3400 (Japan) and SF-2000 (Russia). Fluorescence spectra were measured with a computerized spectrofluorimeter Perkin-Elmer MPF-44B. 10 mm wide quartz cuvettes were used for absorption and fluorescence measurements. Fluorescence was detected at a right angle to the excitation beam. The spectral bandwidth of the monochromator was 3 nm. […] The fluorescence quantum yields (ΦF) were determined using as a reference, solutions of TPPS (m-tetrakis(p-sulfonatophenyl)porphine) in ethanol. According to the literature, the most likely fluorescence quantum yield of TPPS in air-saturated water and ethanol is equal to 0.08 (K. Kalyanasundaram and M. Neumann-Spallart, Photophysical and redox properties of water soluble porphyrins in aqueous media, J. Phys. Chem., 1982, 86, 5163-5169; and A. T. Gradyushko, A. N. Sevchenko, K. N. Solovyov and M. P. Tsvirko, Energetics of photophysical processes in chlorophyll-like molecules, Photochem. Photobiol., 1970, 11, 387-400). The fluorescence of the samples was excited by the monochromatic light corresponding to the maximum of the Soret bands: 415 nm for TPPS in ethanol and 413 nm for TPPS in water, and 403 nm for chlorin e4 sodium in water and ethanol. The monochromator bandwidth was 3 nm. The fluorescence quantum yields (ΦF) were calculated using the following equation: […]
where (ΦTPP is the quantum yield of TPPS fluorescence, Sc is the square under the fluorescence spectrum of the chlorin e4 sodium sample, STPP is the square under the fluorescence spectrum of TPPS, and Dc and DTPP are absorbance (optical density) of the chlorin e4 sodium and TPPS respectively at the excitation wavelengths. The obtained results were collated using relative units of intensity of the excited light at the excitation wavelengths. The intensities of the monochromatic light were measured using a calibrated silicon detector from Optical Power Meter System ThorLabs (Karlsfeld, Germany).

[2] = test system: invasive ductile breast cancer and lymph node metastases; assay: In vivo studies Example 1: patient, oral chlorin e4 sodium plus laser and LED light; set-up: species or system human
Protocol: A patient with invasive ductile breast cancer and lymph node metastases in the right arm pit, was treated successfully. Prior to treatment a large cancer mass in the right breast was observed and a small cancer mass in the right arm pit. The treatment consisted of three courses. For each course, five doses of 62.5-187.5 mg chlorin e4 sodium were administered orally over the course of eight days. 24-48 hours after each oral dose of chlorin e4 sodium, the patient was treated with laser and LED light having a wavelength of 660 nm and 760 nm.
Subsequently the patient was treated with two further courses. Again, for each course, five doses of 62.5-187.5 mg chlorin e4 sodium were administered orally over the course of eight days. 24-48 hours after each oral dose of chlorin e4 sodium, the patient was treated with laser and LED light having a wavelength of 660 nm and 760 nm. Additionally an interstitial light treatment using a fine needle was performed on the breast with an optical fibre laser having a wavelength of 660 nm and 760 nm.

[3] = test system: breast cancer in the right breast; assay: In vivo studies Example 9: patient, oral chlorin e4 sodium plus laser and LED light; set-up: species or system human
Protocol: A patient with breast cancer in the right breast was treated successfully. The treatment consisted of three courses. For each course, five doses of 62.5-187.5 mg chlorin e4 sodium were administered orally over the course of eight days. 24-48 hours after each oral dose of chlorin e4 sodium, the patient was treated with laser and LED light having a wavelength of 660 nm and 760 nm.

[4] = test system: advanced non-small cell lung cancer; assay: Clinical study with patients suffering from advanced non-small cell lung cancer; type: in vivo, human
Protocol: Through pathology or cytology diagnosis, 66 advanced non-small cell lung cancer patients were selected and randomly divided into two groups. Group A had 32 patients who were treated with chlorin e4 sodium. Group B had 34 patients who were treated with both chemotherapy and radiotherapy.
For group A, chlorin e4 sodium was administered at a dosage of 2 mg per kilogram of body weight, with two thirds administered by inhalation and one third administered orally. After the irradiation target(s) had been determined, an optical fibre for laser treatment purposes was guided into the lung tumor(s) via an interstitial procedure. Irradiation light intensity was 200 J/cm^2, irradiation power was 1,000 mW, and irradiation lasted for eight to ten minutes. Laser irradiation into the tumor was two to five centimeters in depth. Irradiation was either performed phase by phase (sub-paragraph treatment) based on tumor size or performed repeatedly.
For group B, for the radiotherapy, a 15 MV X-ray radiation therapy irradiation field covered primary lung tumor lesion(s) and mediastinal lymphatic drainage area, with a dosage of 65-70 Gy, administered on every first day in a week of radiotherapy. For the chemotherapy, 20 mg cisplatin was administered by intravenous application.

S180 sarcoma = assay: Photodynamic therapy study with mice with subcutaneous S180 sarcoma; type: in vivo, Kunming mice
Protocol: In this experiment the effects of photodynamic therapy mediated by three different photosensitizers, namely Duteroporphyrin, chlorin e4 sodium and 5-ALA, on mouse S180 sarcoma were observed. Duteroporphyrin and 5-ALA are porphyrin derivatives.
40 Kunming mice with well grown subcutaneous S180 sarcoma were randomly divided into four groups: (A) Duteroporphyrin group (10 mg/kg), (B) chlorin e4 sodium group (20 mg/kg), (C) 5-ALA group (100 mg/kg) and (D) blank control group. The mice in groups A and B were subjected to irradiation 8-10 hours after tail vein injection of the photo sensitizers, while the mice in group C were subjected to irradiation 3 hours after tail vein injection of the photosensitizer. A laser with a wavelength of 630 nm was used for groups A and C, while a duel-frequency laser with wavelengths of 660 nm and 760 nm was used for group B. The local tumour sites were irradiated vertically, with the diameter of the laser spots being 1.2-1.5 cm. The whole tumour and 3-5 mm of normal tissue around the tumour were covered by the laser. The lasers were applied to groups A, B and C for 20 minutes, with a power density of 150 mW/cm^2 and an energy density of 180 J/cm^2. The mice in control group D were not subjected to irradiation.

[5] = group A (32 patients): chlorin e4 sodium 2 mg/kg inhalation and oral + interstitial laser, group B (34 patients): cisplatin 20 mg iv + radiotherapy
[6] = 21 days after the treatments, P<0.05

Structure (SMILES): C=Cc1c(C)c2cc3nc(c(C)c4[nH]c(cc5nc(cc1[nH]2)C(C)=C5CC)c(C)c4C(=O)O)[C@@H](CCC(=O)O)[C@@H]3C [chlorin e4 sodium]
- Fluorescence quantum yield (ranking among solvents) ([1]; SDS containing water): slightly less
- Fluorescence quantum yield (ranking among solvents) ([1]; ethanol): highest
- Fluorescence quantum yield (ranking among solvents) ([1]; water without SDS): smallest; also recorded: still high
- Response in the breast and lymph nodes (PET/CT) ([2]; after the fifth and final treatment course): complete response
- Reduction in size of large cancer mass in the breast (doppler ultrasound) ([2]; after the fourth treatment course): about 25%
- Size of large cancer mass in the breast (doppler ultrasound) ([2]; after three courses): had not reduced in size
- Vascularity of large cancer mass in the breast (doppler ultrasound) ([2]; after three courses): almost no vascularity
- Vascularity of smaller lymph node cancer mass (doppler ultrasound) ([2]; after three courses): almost no vascularity
- Size of smaller lymph node cancer mass ([2]; after three courses, reduced from 1.9 cm): 1 cm
- Reactions at the breast tumour site ([2]; inflammatory response after each course, burning sensation towards the end of the second course): inflammatory response; also recorded: burning sensation
- Patient status ([2]; two years and three months after starting, five months after completion of treatment): alive and well
- Response of the breasts (mammography, ultrasound and PET/CT) ([3]; before and after three courses): complete response
- Patient status ([3]; one year and seven months after starting, 10 months after completion of treatment): alive and well
- Side effects ([3]; three courses): no side effects
- One year survival rate [4, 5]: 93.75%
- Two years survival rate [4, 5]: 68.75%
- Combined complete and partial remission rate ([4]; group A: chlorin e4 sodium 2 mg/kg + interstitial laser, group B: cisplatin 20 mg iv + radiotherapy): 56.20%
- Pathological changes of tumour tissues (HE staining) (S180 sarcoma; 24 hours after the treatment): a wide range of tumour necrosis, tumour vascular disruption and neutrophil infiltration
- Living tumour cells versus control group D (FCM) (S180 sarcoma; 24 hours after treatments): obviously fewer
- Proportions of apoptotic and necrotic tumour cells versus control group D (FCM) (S180 sarcoma; 24 hours after treatments): a lot higher
- Mean tumour volume versus control group D (S180 sarcoma; [6]): statistically significantly smaller
- Mean tumour volume, group B versus group C (5-ALA) (S180 sarcoma; [6]): statistically significantly smaller in group B than group C
- Tumour appearance after treatment (eschars) (S180 sarcoma; after treatments): Black eschars
- Recovery of skins and fur (S180 sarcoma; mouse, in vivo): fully recovered
- Sizes of tumours versus control group D (S180 sarcoma; six days after the treatments): no obvious difference
- Therapeutic effect compared with 5-ALA (S180 sarcoma; summary of study, P<0.05): statistically significantly better therapeutic effect
- Tumour inhibition rate (S180 sarcoma; tail vein: Duteroporphyrin 10 mg/kg, chlorin e4 sodium 20 mg/kg, 5-ALA 100 mg/kg, laser 20 minutes, 180 J/cm^2): 75.4%
